Source: patent US8952024B2, “Herbicidal pyrimidone derivatives” (E I du Pont de Nemours and Company, priority 2009, dated 2015)
Like-named read-outs stand apart in the source and are kept apart here.

What was measured:
Assay type in all cases: in vivo
[1] = system: green foxtail (Setaria viridis); assay: Test B pre-/postemergence plant response; conditions: Setaria viridis, read-out: Plant response rating, Foxtail, Green
How it was run: (§1)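 Steps: sow seed in loam–sand soil and spray preemergence, or grow plants in peat-based medium to 1–4 leaves (2–18 cm) and spray postemergence; formulation is non-phytotoxic solvent plus surfactant; hold in greenhouse 13–15 days; score visually vs controls, 0 = no effect, 100 = complete control.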

[2] = system: cocklebur (Xanthium strumarium); assay: Test B pre-/postemergence plant response; conditions: for pest or weed control at 31 g/ha: 31 g ai/ha; for pest or weed control at 125 g/ha: 125 g ai/ha
How it was run: as §1

[3] = system: downy bromegrass (Bromus tectorum); assay: Test B pre-/postemergence plant response; conditions: for pest or weed control at 31 g/ha: 31 g ai/ha; for pest or weed control at 125 g/ha: 125 g ai/ha
How it was run: as §1

[4] = system: giant foxtail (Setaria faberii); assay: Test B pre-/postemergence plant response; conditions: for pest or weed control at 31 g/ha: 31 g ai/ha; for pest or weed control at 125 g/ha: 125 g ai/ha
How it was run: as §1

[5] = system: velvetleaf (Abutilon theophrasti); assay: Test A pre-/postemergence plant response; conditions: Abutilon theophrasti, 240 h, read-out: Plant response rating, Velvetleaf; for pest or weed control at 125 g/ha: 125 g ai/ha; for pest or weed control at 500 g/ha: 500 g ai/ha, approx. ten days
How it was run: (§2)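 Visually rated 0–100 injury (100 = complete control) versus untreated plants, ~10 days in greenhouse. Application pre- (soil spray, loam/sand) and postemergence (2–10 cm, 1–2 leaf stage), same timepoint.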

[6] = system: morningglory (Ipomoea spp.); assay: Test A pre-/postemergence plant response; conditions: Ipomoea, 240 h, read-out: Plant response rating, Morningglory; for pest or weed control at 125 g/ha: 125 g ai/ha; for pest or weed control at 500 g/ha: 500 g ai/ha, approx. ten days
How it was run: as §2

[7] = system: large crabgrass (Digitaria sanguinalis); assay: Test A pre-/postemergence plant response; conditions: Digitaria sanguinalis, 240 h, read-out: Plant response rating, Crabgrass, Large; for pest or weed control at 125 g/ha: 125 g ai/ha; for pest or weed control at 500 g/ha: 500 g ai/ha, approx. ten days
How it was run: as §2

[8] = system: wheat (Triticum aestivum); assay: Test A pre-/postemergence plant response; conditions: Triticum aestivum, 240 h, read-out: Plant response rating, Wheat; for plant injury at 125 g/ha: 125 g ai/ha; for plant injury at 500 g/ha: 500 g ai/ha, approx. ten days
How it was run: as §2

[9] = 62 g ai/ha, postemergence, 0 is no effect, 100 is complete control, 13 to 15 days
[10] = Preemergence, 250 g ai/ha, 0 to 100 scale
[11] = post-emergence, Postemergence, 0 to 100 scale where 0 is no effect and 100 is complete control
[12] = post-emergence, Postemergence, 0 to 100 scale, 0 = no effect, 100 = complete control
[13] = pre-emergence, Preemergence, 0 to 100 scale, 0 = no effect, 100 = complete control
[14] = pre-emergence, Preemergence, visual injury, 0 to 100 scale (0 no effect, 100 complete control)

Q: How did the pest or weed control at 250 g/ha ([1]; post-emergence, Postemergence, 250 g ai/ha, scale 0 to 100 (0 no effect, 100 complete control)) turn out when `COCCCn1c(-c2ccccc2)ncc(C(=O)C2=C(O)CCCC2=O)c1=O` [Compound 81, 5-[(2-hydroxy-6-oxo-cyclohexen-1-yl)carbonyl]-3-(3-methoxypropyl)-2-phenyl-4(3H)-pyrimidinone] was run?
A: 95%

Q: And the pest or weed control at 31 g/ha ([1]; pre-emergence, Preemergence, 31 g ai/ha, scale 0 to 100 (0 no effect, 100 complete control))?
A: 80%

Q: And the pest or weed control at 62 g/ha ([1]; pre-emergence, Preemergence, 62 g ai/ha, scale 0 to 100, 0 no effect, 100 complete control)?
A: 90%

Q: What about the pest or weed control at 125 g/ha ([1]; pre-emergence, Preemergence, 125 g ai/ha, scale 0 to 100, 0 no effect, 100 complete control) of the same molecule?
A: 100%

Q: What about the “Cocklebur plant response rating (0 to 100 scale)” value [2, 9] of the same molecule?
A: 55

Q: And the “Cocklebur plant response rating” value [2, 10]?
A: 85

Q: And the pest or weed control at 31 g/ha ([2]; Xanthium strumarium, post-emergence, postemergence, scale 0 to 100, 0 is no effect, 100 is complete control, read-out: Plant response rating, Cocklebur)?
A: 5%

Q: What about the pest or weed control at 125 g/ha ([2]; Xanthium strumarium, post-emergence, Postemergence, visual rating after 13 to 15 days, scale 0 (no effect) to 100 (complete control)) of the same molecule?
A: 65%

Q: What about the pest or weed control at 250 g/ha ([2]; Xanthium strumarium, post-emergence, Postemergence, 250 g ai/ha, scale 0 to 100 (0 no effect, 100 complete control), read-out: Plant response rating, Cocklebur) of the same molecule?
A: 90%

Q: What about the pest or weed control at 31 g/ha ([2]; Xanthium strumarium, pre-emergence, Preemergence, scale 0 to 100 (0 no effect, 100 complete control), read-out: Plant response rating, Cocklebur) of the same molecule?
A: 0%

Q: And the pest or weed control at 62 g/ha ([2]; Xanthium strumarium, pre-emergence, Preemergence, 62 g ai/ha, scale 0 to 100, 0 no effect, 100 complete control, read-out: Plant response rating, Cocklebur)?
A: 10%

Q: And the pest or weed control at 125 g/ha ([2]; Xanthium strumarium, pre-emergence, Preemergence, scale 0 to 100, 0 no effect, 100 complete control, read-out: Plant response rating, Cocklebur)?
A: 75%

Q: What about the “Bromegrass, Downy plant response rating (0 to 100 scale)” value [3, 9] of the same molecule?
A: 5

Q: What about the pest or weed control at 31 g/ha ([3]; Bromus tectorum, post-emergence, postemergence, scale 0 to 100, 0 is no effect, 100 is complete control, read-out: Plant response rating, Bromegrass, Downy) of the same molecule?
A: 5%

Q: And the pest or weed control at 125 g/ha ([3]; Bromus tectorum, post-emergence, Postemergence, visual rating after 13 to 15 days, scale 0 (no effect) to 100 (complete control))?
A: 30%

Q: And the pest or weed control at 250 g/ha ([3]; Bromus tectorum, post-emergence, Postemergence, 250 g ai/ha, scale 0 to 100 (0 no effect, 100 complete control), read-out: Plant response rating, Bromegrass, Downy)?
A: 50%

Q: And the pest or weed control at 31 g/ha ([3]; Bromus tectorum, pre-emergence, Preemergence, scale 0 to 100 (0 no effect, 100 complete control), read-out: Plant response rating, Bromegrass, Downy)?
A: 0%

Q: What about the pest or weed control at 62 g/ha ([3]; Bromus tectorum, pre-emergence, Preemergence, 62 g ai/ha, scale 0 to 100, 0 no effect, 100 complete control, read-out: Plant response rating, Bromegrass, Downy) of the same molecule?
A: 0%

Q: What about the pest or weed control at 125 g/ha ([3]; Bromus tectorum, pre-emergence, Preemergence, scale 0 to 100, 0 no effect, 100 complete control, read-out: Plant response rating, Bromegrass, Downy) of the same molecule?
A: 0%

Q: And the “Bromegrass, Downy plant response rating” value [3, 10]?
A: 0

Q: What about the “Foxtail, Giant plant response rating (0 to 100 scale)” value [4, 9] of the same molecule?
A: 85

Q: What about the “Foxtail, Giant plant response rating” value [4, 10] of the same molecule?
A: 98

Q: And the pest or weed control at 31 g/ha ([4]; Setaria faberi, post-emergence, postemergence, scale 0 to 100, 0 is no effect, 100 is complete control, read-out: Plant response rating, Foxtail, Giant)?
A: 75%

Q: What about the pest or weed control at 125 g/ha ([4]; Setaria faberi, post-emergence, Postemergence, visual rating after 13 to 15 days, scale 0 (no effect) to 100 (complete control)) of the same molecule?
A: 95%

Q: What about the pest or weed control at 250 g/ha ([4]; Setaria faberi, post-emergence, Postemergence, 250 g ai/ha, scale 0 to 100 (0 no effect, 100 complete control), read-out: Plant response rating, Foxtail, Giant) of the same molecule?
A: 98%

Q: And the pest or weed control at 31 g/ha ([4]; Setaria faberi, pre-emergence, Preemergence, scale 0 to 100 (0 no effect, 100 complete control), read-out: Plant response rating, Foxtail, Giant)?
A: 60%

Q: And the pest or weed control at 62 g/ha ([4]; Setaria faberi, pre-emergence, Preemergence, 62 g ai/ha, scale 0 to 100, 0 no effect, 100 complete control, read-out: Plant response rating, Foxtail, Giant)?
A: 75%

Q: What about the pest or weed control at 125 g/ha ([4]; Setaria faberi, pre-emergence, Preemergence, scale 0 to 100, 0 no effect, 100 complete control, read-out: Plant response rating, Foxtail, Giant) of the same molecule?
A: 85%

Q: What about the pest or weed control at 125 g/ha [5, 11] of the same molecule?
A: 100%

Q: What about the pest or weed control at 500 g/ha [5, 12] of the same molecule?
A: 100%

Q: And the pest or weed control at 125 g/ha [5, 13]?
A: 100%

Q: And the pest or weed control at 500 g/ha [5, 14]?
A: 100%

Q: And the pest or weed control at 125 g/ha [6, 11]?
A: 90%

Q: And the pest or weed control at 500 g/ha [6, 12]?
A: 100%

Q: What about the pest or weed control at 125 g/ha [6, 13] of the same molecule?
A: 0%

Q: And the pest or weed control at 500 g/ha [6, 14]?
A: 70%

Q: And the pest or weed control at 125 g/ha [7, 11]?
A: 90%

Q: And the pest or weed control at 500 g/ha [7, 12]?
A: 90%

Q: And the pest or weed control at 125 g/ha [7, 13]?
A: 90%

Q: What about the pest or weed control at 500 g/ha [7, 14] of the same molecule?
A: 100%

Q: What about the plant injury at 125 g/ha [8, 11] of the same molecule?
A: 0%

Q: What about the plant injury at 500 g/ha [8, 12] of the same molecule?
A: 30%

Q: And the plant injury at 125 g/ha [8, 13]?
A: 0%

Q: What about the plant injury at 500 g/ha [8, 14] of the same molecule?
A: 20%
